Results as given in ChEMBL document CHEMBL1121977, “alpha 2 adrenoceptors: classification, localization, mechanisms, and targets for drugs” (J Med Chem, 1982).

Target: T1, Adrenergic receptor alpha-2 (Rattus norvegicus, UniProt P22086+P19328+P22909)
T1 sequence (P22086 whole entry): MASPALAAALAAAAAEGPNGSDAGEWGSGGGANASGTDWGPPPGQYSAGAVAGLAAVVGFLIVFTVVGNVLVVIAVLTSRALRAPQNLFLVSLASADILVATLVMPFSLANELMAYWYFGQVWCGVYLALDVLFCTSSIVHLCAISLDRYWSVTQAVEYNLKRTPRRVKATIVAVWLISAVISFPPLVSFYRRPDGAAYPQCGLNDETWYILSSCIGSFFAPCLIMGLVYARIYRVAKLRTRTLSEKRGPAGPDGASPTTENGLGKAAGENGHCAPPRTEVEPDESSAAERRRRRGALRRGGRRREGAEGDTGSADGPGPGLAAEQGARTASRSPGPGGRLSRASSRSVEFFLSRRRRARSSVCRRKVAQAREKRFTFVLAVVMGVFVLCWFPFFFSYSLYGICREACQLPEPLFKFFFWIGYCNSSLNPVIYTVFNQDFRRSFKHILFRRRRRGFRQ
T1 sequence (P19328 whole entry): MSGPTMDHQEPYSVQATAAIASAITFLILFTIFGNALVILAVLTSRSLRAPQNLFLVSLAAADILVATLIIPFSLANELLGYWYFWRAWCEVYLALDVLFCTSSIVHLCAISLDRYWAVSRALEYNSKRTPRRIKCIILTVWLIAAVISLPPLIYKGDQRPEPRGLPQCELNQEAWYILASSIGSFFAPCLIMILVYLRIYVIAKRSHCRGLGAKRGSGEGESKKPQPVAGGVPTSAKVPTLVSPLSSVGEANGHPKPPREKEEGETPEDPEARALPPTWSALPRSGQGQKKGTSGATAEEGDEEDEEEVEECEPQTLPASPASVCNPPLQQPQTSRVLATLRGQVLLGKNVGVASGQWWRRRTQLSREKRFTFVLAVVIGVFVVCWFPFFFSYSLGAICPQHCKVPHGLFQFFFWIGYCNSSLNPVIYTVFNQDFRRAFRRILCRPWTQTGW
T1 sequence (P22909 whole entry): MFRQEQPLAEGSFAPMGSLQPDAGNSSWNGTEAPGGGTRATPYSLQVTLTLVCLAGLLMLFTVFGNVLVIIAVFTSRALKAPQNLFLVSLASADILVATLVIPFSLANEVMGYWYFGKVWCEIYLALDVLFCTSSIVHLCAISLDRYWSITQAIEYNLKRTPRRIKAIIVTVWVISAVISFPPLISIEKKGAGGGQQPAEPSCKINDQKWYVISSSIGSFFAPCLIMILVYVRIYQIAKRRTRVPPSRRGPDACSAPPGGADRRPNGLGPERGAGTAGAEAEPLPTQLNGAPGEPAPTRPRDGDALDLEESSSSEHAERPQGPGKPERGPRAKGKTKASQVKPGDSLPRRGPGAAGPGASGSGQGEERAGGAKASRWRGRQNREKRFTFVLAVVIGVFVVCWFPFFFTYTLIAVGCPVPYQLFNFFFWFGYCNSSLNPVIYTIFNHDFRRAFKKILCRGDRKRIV
Experiment: Displacement of [3H]clonidine from Alpha-2 adrenergic receptor of rat brain membranes
Assay type: cell membranes, Membrane

SMILES | Ki [nM]
COc1cccc(OC)c1OCCNCC1COc2ccccc2O1 (centres undefined) | 200
C[C@H](N)[C@H](O)c1ccc(O)c(O)c1 [LEVONORDEFRIN] | 7.7
c1ccc(CC2=NCCN2)cc1 [TOLAZOLINE] | 180
c1cc2c(c(NC3=NCCN3)c1)CCCC2 [TRAMAZOLINE] | 4.2
